Test results published in patent US10328075B2, “Method of treatment and compounds for use therein” (Baker Heart and Diabetes Institute, priority 2015, dated 2019).

Legend:
[1] = system: rFpr1, rFpr2 expression in NRCM; test: Fpr gene expression in neonatal rat cardiomyocytes (real-time PCR); format: cell-based; settings: 1 μM, 48 h incubation
Protocol: Isolation and culture of primary rat cardiomyocytes and mouse cardiac fibroblasts: All materials used for cell isolation were of tissue culture grade. Isolation of primary neonatal rat cardiac cardiomyocytes (NRCM) and adult mouse cardiac fibroblasts (AMCF) was performed by serial enzymatic digestion, as previously described (Irvine et al 2012 & Irvine et al. 3) NRCM were plated onto either 12-well tissue culture plates (for simulated ischemia-reperfusion, via hypoxia-reoxygenation, H-R) or 60 mm tissue culture dishes (for gene expression) at a density of 1.3×10^5 cells/cm^2, in the presence of 1% 5-bromo-2′-deoxyuridine. AMCF (passage #3) were seeded onto 60 mm tissue culture dishes at 9.5×10^4 cells/cm^2 and allowed to grow to 80% confluence prior to study. Following 48 h in serum-free DMEM, NRCM in 12-well tissue plates were subjected to simulated ischemia, induced by replacement of culture media with sterile-filtered Kreb's buffer (118 mM NaCl, 4.8 mM KCl, 1.2 mM KH2PO4, 1.2 mM MgSO4, 25 mM NaHCO3, […], 11.0 mM glucose, 1.75 mM CaCl2) prior to incubation for 6 h at 37° C. under hypoxia (95% N2-5% CO2, using a hypoxia chamber, QNA International, Melbourne, Australia). At the end of hypoxia, Kreb's buffer was replaced with fresh, sterile-filtered Kreb's buffer, in the presence or absence of FPR agonists Cmpd17b, Cmpd43 (both 1 μM or vehicle, and NRCM were subjected to 48 h reoxygenation at 37° C. At the end of 48 h reoxygenation, NRCM supernatant was collected for assessment of cardiomyocyte injury. Cardiomyocyte release of cTnI was determined using a commercially available, high-sensitivity rat cTnI ELISA kit (Life Diagnostic Inc.) as per the manufacturer's instructions. Separate NRVM on 60 mm dishes were incubated for 48 h at 37° C. in serum-free DMEM, in the presence or absence of FPR agonists Cmpd17b, Cmpd43 (both 1 μM) or vehicle. At the end of 48 h, RNA was extracted and real-time PCR performed (as described previously (Huynh et al. 2012)), to determine the relative gene expression of rat Fprs (rFpr1, rFpr2 and rFpr3, expressed as the threshold cycle number Ct subtracted from the maximum cycle number utilized, 40).

[2] = system: mFpr1, mFpr2 expression in AMCF; test: Fpr gene expression in adult mouse cardiac fibroblasts (real-time PCR); format: cell-based; settings: 10 μM, 24 h incubation, TGF-β
Protocol: AMCFs were starved overnight in serum-free DMEM prior to incubation with the pro-fibrotic stimulus transforming growth factor TGF-β (10 ng/ml) for 24 h at 37° C. FPR agonists Cmpd17b, Cmpd43 (both 10 μM) or vehicle were present 30 min prior to TGF-β. At the end of 24 h stimulation, RNA was extracted and real-time PCR performed to determine the relative gene expression of CTGF and IL-1β, relative to housekeeping gene 18S, as described previously (5). Relative gene expression of mouse Fprs (mFpr1 and mFpr2, expressed as the threshold cycle number Ct subtracted from the maximum cycle number utilized, 40) was also determined at the end of 24 h stimulation.

CC(C)C1C(NC(=O)Nc2ccc(Cl)cc2)C(=O)N(c2ccccc2)N1C (stereo not shown) [BIDI-002]
NRCM expression of rFpr1 [1]: without impact | NRCM expression of rFpr2 [1]: tended to reduce | AMCF expression of mFpr1 [2]: restored

COc1cccc(Cc2cc(C)nn(C(C)C(=O)Nc3ccc(Br)cc3)c2=O)c1 (stereo not shown) [BIDI-001, N-(4-bromophenyl)-2-[5-(3-methoxybenzyl)-3-methyl-6-oxo-6H-pyridazin-1-yl]-propionamide]
NRCM expression of rFpr1 [1]: did not significantly influence | NRCM expression of rFpr2 [1]: did not significantly influence | AMCF expression of mFpr1 [2]: did not significantly influence | AMCF expression of mFpr2 [2]: did not significantly influence
